Laboratory results as given in PMC9609428, “Rational Design and Synthesis of New Selective COX-2 Inhibitors with In Vivo PGE2-Lowering Activity by Tethering Benzenesulfonamide and 1,2,3-Triazole Pharmacophores to Some NSAIDs” (Pharmaceuticals, 2022).

Tests used:
[1] = molecular target: T1, human COX-2 (Homo sapiens, UniProt P35354); test: In vitro human COX-2 enzymatic inhibitory activity (Cayman COX inhibitor screening assay kit); assay type: biochemical; conditions: for SI COX-1/COX-2: COX-2 selectivity index: COX-1 IC50/COX-2 IC50; for IC50: mean ± SEM of triplicate determinations
T1 construct: purchased Cayman Chemicals Inc., Ann Arbor, MI, USA 560131
T1 sequence (P35354 18-604): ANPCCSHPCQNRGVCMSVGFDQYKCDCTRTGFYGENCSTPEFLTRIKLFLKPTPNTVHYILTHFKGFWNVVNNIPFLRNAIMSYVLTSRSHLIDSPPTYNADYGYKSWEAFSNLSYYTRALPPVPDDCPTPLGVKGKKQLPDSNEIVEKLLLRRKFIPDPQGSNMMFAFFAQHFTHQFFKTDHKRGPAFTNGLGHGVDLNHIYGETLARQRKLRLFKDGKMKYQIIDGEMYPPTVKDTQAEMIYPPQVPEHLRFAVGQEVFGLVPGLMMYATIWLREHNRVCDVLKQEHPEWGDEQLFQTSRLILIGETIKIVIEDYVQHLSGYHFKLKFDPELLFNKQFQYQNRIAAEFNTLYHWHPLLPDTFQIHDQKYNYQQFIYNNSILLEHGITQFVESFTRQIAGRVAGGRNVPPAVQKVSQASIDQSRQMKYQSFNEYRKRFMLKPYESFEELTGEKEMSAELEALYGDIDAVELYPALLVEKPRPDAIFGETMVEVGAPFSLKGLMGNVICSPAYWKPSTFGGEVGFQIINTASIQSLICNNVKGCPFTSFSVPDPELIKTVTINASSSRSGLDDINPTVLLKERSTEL
Experimental: (§1) Inhibitory activities were defined as a test compound concentration achieving 50% human COX-1 or human COX-2 inhibition. The selectivity of compounds was referred to as a compound’s selectivity index values calculated as IC50 (COX-1)/IC50 (COX-2).
(§2) In vitro human COX-1 and human COX-2 enzymatic inhibitory activity of the tested compounds as well as the reference drugs was carried out according to the previously mentioned procedures; for details, see Page S15, Supplementary File.
(§3) 4.2. Biological screening
(§4) 4.2.1. In vitro human COX-1 and human COX-2 enzymatic inhibitory activities In vitro human COX-1 and human COX-2 enzymatic inhibitory activity of the tested compounds as well as the reference drugs was carried out according to the previously mentioned procedures [1][2]depending on Cayman colorimetric COX (ovine) inhibitor screening assay kit (Catalog No.
(§5) All reagents, test solutions and experimental procedures were performed in correspondence to both the manufacturer’s instructions and previously reported methods. Briefly, […] of different concentrations of tested compound solutions were added to a series of supplied reaction buffer solutions (960 µL, 0.1 M Tris-HCl, pH 8.0 containing 5 mM EDTA and 2 mM phenol) with either COX-1 or COX-2 (10 µL) enzyme in the presence of heme (10 µL). 10 µL of Arachidonic Acid (100 µM) solution were added to the mixtures of the enzyme and tested compounds, After incubating for 5 min at 25 °C followed by stopping COX reaction by adding of 50 µL of 1 M HCl. Moreover, after adding 100 µL of saturated stannous chloride solution, the absorbance was measured spectrophotometrically using plate reader. measuring the […]
(§6) percentage of human COX-1 or human COX-2 enzymatic inhibition of five different concentrations of each compound and then concentration-inhibition response curve were plotted to obtain IC50 values(three determinations). […]

[2] = molecular target: T2, (Ovis aries, UniProt P05979); test: In vitro human COX-1 enzymatic inhibitory activity (Cayman COX inhibitor screening assay kit); assay type: biochemical; conditions: mean ± SEM of triplicate determinations
T2 construct: purchased Cayman Chemicals Inc., Ann Arbor, MI, USA 560131
T2 sequence (P05979 25-600): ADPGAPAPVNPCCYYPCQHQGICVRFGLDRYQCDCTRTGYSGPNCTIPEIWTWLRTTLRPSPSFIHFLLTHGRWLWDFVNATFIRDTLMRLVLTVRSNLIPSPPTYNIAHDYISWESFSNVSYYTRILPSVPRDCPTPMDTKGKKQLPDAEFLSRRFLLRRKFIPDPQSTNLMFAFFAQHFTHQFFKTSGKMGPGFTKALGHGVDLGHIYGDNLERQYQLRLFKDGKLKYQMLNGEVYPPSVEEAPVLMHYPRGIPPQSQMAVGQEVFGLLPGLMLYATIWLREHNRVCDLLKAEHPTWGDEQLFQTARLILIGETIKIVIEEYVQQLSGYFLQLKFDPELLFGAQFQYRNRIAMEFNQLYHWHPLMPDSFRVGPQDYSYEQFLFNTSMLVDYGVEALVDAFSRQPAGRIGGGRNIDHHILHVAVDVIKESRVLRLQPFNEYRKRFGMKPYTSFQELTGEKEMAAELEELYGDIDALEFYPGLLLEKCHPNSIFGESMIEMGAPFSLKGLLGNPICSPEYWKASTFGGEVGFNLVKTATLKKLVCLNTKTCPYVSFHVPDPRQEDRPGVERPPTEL
Experimental: as §1, §2, §3, §4, §5, §6

## CC(=NNC(=O)C(C)c1ccc(CC(C)C)cc1)c1nnn(-c2ccc(S(=O)(=O)Nc3ncccn3)cc2)c1C (stereo not drawn) [Compound 6c, 4-(4-(1-(2-(2-(4-Isobutylphenyl)propanoyl)hydrazineylidene)ethyl)-5-methyl-1H-1,2,3-triazol-1-yl)-N-(pyrimidin-2-yl)benzenesulfonamide]
[1]
  SI COX-1/COX-2: 159.57
  IC50: 0.07 ± 0.0006 µM
other
  melting point: 257 to 259 °C
[2]
  IC50: 11.17 ± 0.0333 µM

## CC(=NNC(=O)Cc1ccccc1Nc1c(Cl)cccc1Cl)c1nnn(-c2ccc(S(N)(=O)=O)cc2)c1C [Compound 6d, 4-(4-(1-(2-(2-(2-((2,6-Dichlorophenyl)amino)phenyl)acetyl)hydrazineylidene)ethyl)-5-methyl-1H-1,2,3-triazol-1-yl)benzenesulfonamide]
[1]
  SI COX-1/COX-2: 105
  IC50: 0.08 ± 0.0009 µM
other
  melting point: 241 to 243 °C
[2]
  IC50: 8.4 ± 0.0577 µM

## CC(=NNC(=O)Cc1ccccc1Nc1c(Cl)cccc1Cl)c1nnn(-c2ccc(S(=O)(=O)Nc3ncccn3)cc2)c1C [Compound 6f, 4-(4-(1-(2-(2-(2-((2,6-Dichlorophenyl)amino)phenyl)acetyl)hydrazineylidene)ethyl)-5-methyl-1H-1,2,3-triazol-1-yl)-N-(pyrimidin-2-yl)benzenesulfonamide]
[1]
  SI COX-1/COX-2: 158.38
  IC50: 0.08 ± 0.0007 µM
other
  melting point: 276 to 278 °C
[2]
  IC50: 12.67 ± 0.0333 µM

## CC(=NNC(=O)c1ccccc1O)c1nnn(-c2ccc(S(N)(=O)=O)cc2)c1C [Compound 6g, 4-(4-(1-(2-(2-Hydroxybenzoyl)hydrazineylidene)ethyl)-5-methyl-1H-1,2,3-triazol-1-yl)benzenesulfonamide]
[1]
  SI COX-1/COX-2: 83.38
  IC50: 0.08 ± 0.0006 µM
other
  melting point: 220 to 222 °C
[2]
  IC50: 6.67 ± 0.0667 µM

## CC(=NNC(=O)c1ccccc1O)c1nnn(-c2ccc(S(=O)(=O)Nc3nccs3)cc2)c1C [Compound 6h, 4-(4-(1-(2-(2-Hydroxybenzoyl)hydrazineylidene)ethyl)-5-methyl-1H-1,2,3-triazol-1-yl)-N-(thiazol-2-yl)benzenesulfonamide]
[1]
  SI COX-1/COX-2: 91.89
  IC50: 0.09 ± 0.0006 µM
other
  melting point: 227 to 229 °C
[2]
  IC50: 8.27 ± 0.0667 µM

## CC(=NNC(=O)c1ccccc1O)c1nnn(-c2ccc(S(=O)(=O)Nc3ncccn3)cc2)c1C [Compound 6i, 4-(4-(1-(2-(2-Hydroxybenzoyl)hydrazineylidene)ethyl)-5-methyl-1H-1,2,3-triazol-1-yl)-N-(pyrimidin-2-yl)benzenesulfonamide]
[1]
  SI COX-1/COX-2: 146.14
  IC50: 0.07 ± 0.0006 µM
other
  melting point: 248 to 250 °C
[2]
  IC50: 10.23 ± 0.0882 µM
